Measurements taken from US20250186541A1, “DLL3 TARGETING PEPTIDES AND CONSTRUCTS THEREOF” (MARIANA ONCOLOGY INC., priority 2023, published 2025).
Bridge positions count the residues as written; N and C are the ends. Square brackets hold non-standard residues; d marks the D form. Peptide text beside a SMILES is read from it. * marks the point of attachment. DOTA = O=C(O)CN1CCN(CC(=O)O)CCN(CC(=O)*)CCN(CC(=O)O)CC1; Lys(Me3) = C[N+](C)(C)CCCC[C@H](N)C(=O)O; 1Nal = N[C@@H](Cc1cccc2ccccc12)C(=O)O; NMeQ = CN[C@@H](CCC(N)=O)C(=O)O; Chg = N[C@H](C(=O)O)C1CCCCC1; αMeP = C[C@@]1(C(=O)O)CCCN1; dNle = CCCC[C@@H](N)C(=O)O; Ahx = NCCCCCC(=O)O

Biological target: T1, human DLL3 (Homo sapiens, UniProt Q9NYJ7)
T1 construct: biotin (biotinylated)
T1 sequence (Q9NYJ7 27-618): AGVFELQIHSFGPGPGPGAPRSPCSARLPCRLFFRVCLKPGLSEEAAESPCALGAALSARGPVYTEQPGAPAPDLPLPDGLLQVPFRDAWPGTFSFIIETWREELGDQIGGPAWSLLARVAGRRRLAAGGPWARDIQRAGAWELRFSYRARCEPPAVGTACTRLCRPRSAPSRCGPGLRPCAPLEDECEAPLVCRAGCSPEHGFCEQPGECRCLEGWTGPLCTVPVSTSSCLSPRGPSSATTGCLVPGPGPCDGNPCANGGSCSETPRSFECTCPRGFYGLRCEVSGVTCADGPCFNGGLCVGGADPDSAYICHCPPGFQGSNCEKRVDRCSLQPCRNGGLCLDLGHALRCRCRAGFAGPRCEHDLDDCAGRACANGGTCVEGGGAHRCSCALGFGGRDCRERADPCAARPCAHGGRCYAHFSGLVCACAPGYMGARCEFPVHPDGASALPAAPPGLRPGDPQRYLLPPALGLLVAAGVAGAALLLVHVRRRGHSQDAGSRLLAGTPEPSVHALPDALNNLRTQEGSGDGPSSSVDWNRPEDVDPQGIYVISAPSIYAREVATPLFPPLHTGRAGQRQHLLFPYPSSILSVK
Experiment: Affinity determination by Surface Plasmon Resonance (SPR), Biacore, 1:1 binding model
Details: biotinylated human DLL3 on streptavidin chip, 25° C.; NB = nonbinding
How it was run: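 SPR with biotinylated human DLL3 captured on a streptavidin chip, with a reference surface subtracted. Samples were injected at several concentrations at 100 μL/min in phosphate buffer with 137 mM NaCl, 2.7 mM KCl, 0.05% P20 and 2% DMSO. Kinetic and affinity constants came from a 1:1 binding fit.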

SMILES | Kd
CC(=O)N[C@@H](CCC(=O)O)C(=O)N[C@@H](CO)C(=O)N[C@@H](CC(=O)O)C(=O)N[C@H]1CSSC[C@@H](C(=O)N2CCC[C@H]2C(=O)N[C@@H](Cc2ccccc2)C(=O)N[C@@H](CC(=O)O)C(=O)N[C@H](CCCCNC(=O)CN2CCN(CC(=O)O)CCN(CC(=O)O)CCN(CC(=O)O)CC2)C(N)=O)NC(=O)[C@H](CC(N)=O)NC(=O)[C@H](Cc2c[nH]c3ccccc23)NC(=O)[C@H](CCC(N)=O)NC(=O)[C@H](CC(C)C)NC(=O)[C@H](Cc2c[nH]c3ccccc23)NC1=O [compound 81, Ac-Glu-S-D-C(3)-W-L-Q-W-N-C(3)-P-F-D-D-Lys(DOTA)-CONH2] (Ac-ESDCWLQWNCPFD[dK](DOTA)-NH2; disulfide 4-10) | 0.0123 µM
CC(=O)N[C@@H](CCCC[N+](C)(C)C)C(=O)N[C@@H](CO)C(=O)N[C@@H](CC(=O)O)C(=O)N[C@H]1CSSC[C@@H](C(=O)N2CCC[C@H]2C(=O)N[C@@H](Cc2ccccc2)C(=O)N[C@@H](CC(=O)O)C(=O)N[C@H](CCCCNC(=O)CN2CCN(CC(=O)O)CCN(CC(=O)O)CCN(CC(=O)O)CC2)C(N)=O)NC(=O)[C@H](CC(N)=O)NC(=O)[C@H](Cc2c[nH]c3ccccc23)NC(=O)[C@H](CCC(N)=O)NC(=O)[C@H](CC(C)C)NC(=O)[C@H](Cc2c[nH]c3ccccc23)NC1=O [compound 85, Ac-Lys(Me)3-S-D-C(3)-W-L-Q-W-N-C(3)-P-F-D-D-Lys(DOTA)-CONH2] (Ac-[Lys(Me3)]SDCWLQWNCPFD[dK](DOTA)-NH2; disulfide 4-10) | 0.014 µM
CC(=O)N[C@@H](CO)C(=O)N[C@@H](CC(=O)O)C(=O)N[C@H]1CSSC[C@@H](C(=O)N2CCC[C@H]2C(=O)N[C@@H](Cc2ccccc2)C(=O)N[C@@H](CC(=O)O)C(=O)N[C@@H](CCCCNC(=O)CN2CCN(CC(=O)O)CCN(CC(=O)O)CCN(CC(=O)O)CC2)C(N)=O)NC(=O)[C@H](CC(N)=O)NC(=O)[C@H](Cc2c[nH]c3ccccc23)NC(=O)[C@H](CCC(N)=O)NC(=O)[C@H](CC(C)C)NC(=O)[C@H](Cc2c[nH]c3ccccc23)NC1=O [compound 86, Ac-S-D-C(3)-W-L-Q-W-N-C(3)-P-F-D-[L-Lys(DOTA)]-NH2] (Ac-SDCWLQWNCPFDK(DOTA)-NH2; disulfide 3-9) | 0.0123 µM
CC(C)C[C@@H]1NC(=O)[C@H](Cc2c[nH]c3ccccc23)NC(=O)[C@@H](NC(=O)[C@H](CC(=O)O)NC(=O)[C@H](CO)NC(=O)CCCCCNC(=O)CN2CCN(CC(=O)O)CCN(CC(=O)O)CCN(CC(=O)O)CC2)CSSC[C@@H](C(=O)N2CCC[C@H]2C(=O)N[C@@H](Cc2ccccc2)C(=O)N[C@@H](CC(=O)O)C(N)=O)NC(=O)[C@H](CC(N)=O)NC(=O)[C@H](Cc2c[nH]c3ccccc23)NC(=O)[C@H](CCC(N)=O)N(C)C1=O [compound 93, DOTA-Ahx-S-D-C(3)-W-L-(NMe-Gln)-W-N-C(3)-P-F-D-CONH2] ({DOTA-Ahx}-SDCWL[NMeQ]WNCPFD-NH2; disulfide 3-9) | > 0.1 µM
CC(=O)N[C@H](C(=O)N[C@@H](CO)C(=O)N[C@@H](CC(=O)O)C(=O)N[C@H]1CSSC[C@@H](C(=O)N2CCC[C@@]2(C)C(=O)N[C@@H](Cc2ccccc2)C(=O)N[C@@H](CC(=O)O)C(=O)N[C@H](CCCCNC(=O)CN2CCN(CC(=O)O)CCN(CC(=O)O)CCN(CC(=O)O)CC2)C(N)=O)NC(=O)[C@H](CC(N)=O)NC(=O)[C@H](Cc2c[nH]c3ccccc23)NC(=O)[C@H](CCC(N)=O)NC(=O)[C@H](CC(C)C)NC(=O)[C@H](Cc2cccc3ccccc23)NC1=O)C1CCCCC1 [compound 95, Ac-(Chg)-S-D-C(3)-(1Nal)-L-Q-W-N-C(3)-(aMe-P)-F-D-D-Lys(DOTA)-CONH2] (Ac-[Chg]SDC[1Nal]LQWNC[αMeP]FD[dK](DOTA)-NH2; disulfide 4-10) | 0.00029 µM
CC(=O)N[C@H](C(=O)N[C@@H](CO)C(=O)N[C@@H](CC(=O)O)C(=O)N[C@H]1CSSC[C@@H](C(=O)N2CCC[C@H]2C(=O)N[C@@H](Cc2ccccc2)C(=O)N[C@@H](CC(=O)O)C(N)=O)NC(=O)[C@H](CC(N)=O)NC(=O)[C@H](Cc2c[nH]c3ccccc23)NC(=O)[C@H](CCC(N)=O)NC(=O)[C@H](CC(C)C)NC(=O)[C@H](CCCCNC(=O)CN2CCN(CC(=O)O)CCN(CC(=O)O)CCN(CC(=O)O)CC2)NC1=O)C1CCCCC1 [compound 97, Ac-(Chg)-S-D-C(3)-[L-Lys(DOTA)]-L-Q-W-N-C(3)-P-F-D-CONH2] (Ac-[Chg]SDCK(DOTA)LQWNCPFD-NH2; disulfide 4-10) | > 0.1 µM
CC(=O)N[C@H](C(=O)N[C@@H](CO)C(=O)N[C@@H](CC(=O)O)C(=O)N[C@H]1CSSC[C@@H](C(=O)N2CCC[C@H]2C(=O)N[C@@H](Cc2ccccc2)C(=O)N[C@@H](CC(=O)O)C(N)=O)NC(=O)[C@H](CC(N)=O)NC(=O)[C@H](CCCCNC(=O)CN2CCN(CC(=O)O)CCN(CC(=O)O)CCN(CC(=O)O)CC2)NC(=O)[C@H](CCC(N)=O)NC(=O)[C@H](CC(C)C)NC(=O)[C@H](Cc2c[nH]c3ccccc23)NC1=O)C1CCCCC1 [compound 99, Ac-(Chg)-S-D-C(3)-W-L-Q-[L-Lys(DOTA)]-N-C(3)-P-F-D-CONH2] (Ac-[Chg]SDCWLQK(DOTA)NCPFD-NH2; disulfide 4-10) | > 0.1 µM
CC(=O)N[C@H](C(=O)N[C@@H](CO)C(=O)N[C@@H](CC(=O)O)C(=O)N[C@H]1CSSC[C@@H](C(=O)N2CCC[C@H]2C(=O)N[C@@H](Cc2ccccc2)C(=O)N[C@@H](CC(=O)O)C(N)=O)NC(=O)[C@H](CCCCNC(=O)CN2CCN(CC(=O)O)CCN(CC(=O)O)CCN(CC(=O)O)CC2)NC(=O)[C@H](Cc2c[nH]c3ccccc23)NC(=O)[C@H](CCC(N)=O)NC(=O)[C@H](CC(C)C)NC(=O)[C@H](Cc2c[nH]c3ccccc23)NC1=O)C1CCCCC1 [compound 100, Ac-(Chg)-S-D-C(3)-W-L-Q-W-[L-Lys(DOTA)]-C(3)-P-F-D-CONH2] (Ac-[Chg]SDCWLQWK(DOTA)CPFD-NH2; disulfide 4-10) | > 0.3 µM
CC(=O)N[C@H](C(=O)N[C@@H](CO)C(=O)N[C@@H](CC(=O)O)C(=O)N[C@H]1CSSC[C@@H](C(=O)N[C@@H](CCCCNC(=O)CN2CCN(CC(=O)O)CCN(CC(=O)O)CCN(CC(=O)O)CC2)C(=O)N[C@@H](Cc2ccccc2)C(=O)N[C@@H](CC(=O)O)C(N)=O)NC(=O)[C@H](CC(N)=O)NC(=O)[C@H](Cc2c[nH]c3ccccc23)NC(=O)[C@H](CCC(N)=O)NC(=O)[C@H](CC(C)C)NC(=O)[C@H](Cc2c[nH]c3ccccc23)NC1=O)C1CCCCC1 [compound 101, Ac-(Chg)-S-D-C(3)-W-L-Q-W-N-C(3)-[L-Lys(DOTA)]-F-D-CONH2] (Ac-[Chg]SDCWLQWNCK(DOTA)FD-NH2; disulfide 4-10) | > 0.3 µM
CC(=O)N[C@H](C(=O)N[C@@H](CO)C(=O)N[C@@H](CC(=O)O)C(=O)N[C@H]1CSSC[C@@H](C(=O)N2CCC[C@H]2C(=O)N[C@@H](CCCCNC(=O)CN2CCN(CC(=O)O)CCN(CC(=O)O)CCN(CC(=O)O)CC2)C(=O)N[C@@H](CC(=O)O)C(N)=O)NC(=O)[C@H](CC(N)=O)NC(=O)[C@H](Cc2c[nH]c3ccccc23)NC(=O)[C@H](CCC(N)=O)NC(=O)[C@H](CC(C)C)NC(=O)[C@H](Cc2c[nH]c3ccccc23)NC1=O)C1CCCCC1 [compound 102, Ac-(Chg)-S-D-C(3)-W-L-Q-W-N-C(3)-P-[L-Lys(DOTA)]-D-CONH2] (Ac-[Chg]SDCWLQWNCPK(DOTA)D-NH2; disulfide 4-10) | > 0.1 µM
CCCC[C@@H](NC(C)=O)C(=O)N[C@@H](CO)C(=O)N[C@@H](CC(=O)O)C(=O)N[C@H]1CSSC[C@@H](C(=O)N2CCC[C@H]2C(=O)N[C@@H](Cc2ccccc2)C(=O)N[C@@H](CC(=O)O)C(=O)N[C@H](CCCCNC(=O)CN2CCN(CC(=O)O)CCN(CC(=O)O)CCN(CC(=O)O)CC2)C(N)=O)NC(=O)[C@H](CC(N)=O)NC(=O)[C@H](Cc2c[nH]c3ccccc23)NC(=O)[C@H](CCC(N)=O)NC(=O)[C@H](CC(C)C)NC(=O)[C@H](Cc2cccc3ccccc23)NC1=O [compound 103, Ac-(D-Nle)-S-D-C(3)-(1Nal)-L-Q-W-N-C(3)-P-F-D-D-Lys(DOTA)-CONH2] (Ac-[dNle]SDC[1Nal]LQWNCPFD[dK](DOTA)-NH2; disulfide 4-10) | 0.00035 µM
CC(=O)N[C@H](C)C(=O)N[C@@H](CO)C(=O)N[C@@H](CC(=O)O)C(=O)N[C@H]1CSSC[C@@H](C(=O)N2CCC[C@H]2C(=O)N[C@@H](Cc2ccccc2)C(=O)N[C@@H](CC(=O)O)C(=O)N[C@H](CCCCNC(=O)CN2CCN(CC(=O)O)CCN(CC(=O)O)CCN(CC(=O)O)CC2)C(N)=O)NC(=O)[C@H](CC(N)=O)NC(=O)[C@H](Cc2c[nH]c3ccccc23)NC(=O)[C@H](CCC(N)=O)NC(=O)[C@H](CC(C)C)NC(=O)[C@H](Cc2cccc3ccccc23)NC1=O [compound 104, Ac-(D-Ala)-S-D-C(3)-(1Nal)-L-Q-W-N-C(3)-P-F-D-D-Lys(DOTA)-CONH2] (Ac-[dA]SDC[1Nal]LQWNCPFD[dK](DOTA)-NH2; disulfide 4-10) | 0.00035 µM
